The values below come from patent publication US20110009379A1, “INDOLINONE COMPOUND” (ASTELLAS PHARMA INC., priority 2008, published 2011).

The test system of one test is gastric emptying of rats. Briefly: Activity to gastric emptying of TRPA1 agonist (phenol red, rats). The test is classed as in vivo. The following applies: Rattus norvegicus; male wistar rats, oral administration, versus control animals; read-out: ED50 (amount which suppresses 50% of gastric emptying). An excerpt: When EC cell is stimulated by content of a gastrointestinal tract, 5-HT is secreted. The secreted 5-HT promotes the secretion or motility through a 5-HT receptor present in intestinal nerve plexus or gastrointestinal smooth muscle. The secreted 5-HT is instantly taken into a cell by its specific transporter, and is metabolized by […]. Thus, while it is considerably difficult to directly measure the secreted 5-HT concentration, it has been known that gastric emptying is delayed as a physiological activity through 5-HT in rodents. In order to verify in vivo activity through 5-HT of the compound to be tested, activity to gastric emptying of rats by various TRPA1 agonists was studied.
In the experiment, male wistar rats (body weight 290 to 360 g) were used. The animals were purchased from Japan SLC (Shizuoka). The animals were allowed to drink water freely under a constitutive environment.
5 minutes after the medicine was orally administered, 0.05% phenol red solution (1.5 mL) was orally administered. After 15 minutes, rats were put painlessly to death by cervical vertebral dislocation, their stomachs were exenterated, and phenol red was eluted with 0.1M aqueous NaOH solution (5 mL) from the exenterated stomachs. 20% aqueous trichloroacetic acid solution (0.1 mL) was added to the NaOH solution (0.5 mL), followed by stirring and centrifugation at 15,000 rpm, at 4° C., for 10 minutes. 0.5M aqueous NaOH solution (0.2 mL) was added to the supernatant (0.05 mL), followed by stirring, and absorbance at 560 nm was measured using an absorption spectrometer (spectrometer spectramax M2; Molecular Devices, CA, USA).
A gastric emptying was calculated by the following calculating formula.
Gastric emptying (%)=100−(A/B)×100
A: amount of phenol red remaining in stomach
B: amount of phenol red remaining in stomach just after administering phenol red
ED50 values (amount of the compound to be tested which suppresses 50% of gastric emptying, with respect to the control animals without administering the compound to be tested) of some of the compounds of the formula (I) are shown in Table 2. In this connection, comparative compound 1 and comparative compound 2 are (3E)-1-methyl-3-(2-oxopropyridene)-1,3-dihydro-2H-indol-2-one, and (3E)-3-(2-oxopropyridene)-1-prop-2-in-1-yl-1,3-dihydro-2H-indol-2-one described in Non Patent Document 4 above, and has the following chemical structures, respectively.

Test [1] has as its system delay of discharging time induced by loperamide in mice. In words: Loperamide induced constipation model (glass bead discharging time). The following applies: Mus musculus; mice (Slc:ddY, male), 0.3 mg/kg loperamide subcutaneously, compound orally; read-out: ED50 (amount which suppresses 50% of the delay of discharging time induced by loperamide). The test is classed as in vivo. As to the method: It has been known that loperamide as a μ opioid receptor agonist causes convulsive contraction in intestinal tracts. Thus, a delay in the intestinal transport ability due to loperamide is thought as a constipation IBS model.
Mice (Slc:ddY, five-week old, male) fasted from the previous evening of the experiment. On the day of the experiment, the mice were acclimatized to cages for measurement for 1 hour or more, and 0.3 mg/kg of loperamide was administered subcutaneously. After 30 minutes, a compound to be tested was administered orally, ether anesthesia was applied to the mice immediately thereafter, glass beads having diameter of 3 mm were inserted to 2 cm from anus. The mice were returned to the cages for measurement, and the time from waking to discharging of the glass beads was measured. Furthermore, the compound to be tested was dissolved into 10% DMSO, 10% cremophor, and 80% distillated water.
As a result, it has been recognized that there was a delay in the beads discharging time of the loperamide administration group (vehicle group) in comparison with the loperamide non-administration group (control group).
ED50 values (amount of the compound to be tested which suppresses 50% of the delay of discharging time induced by loperamide) of some of the compounds of the formula (I) are shown in Table 3. In this connection, comparative compound 1 is the same compound as comparative compound 1 in Test Example 4.

The next test concerns the target Cytochrome P450(2D6) (Homo sapiens, UniProt P10635). Briefly: Cytochrome P450(2D6) enzyme inhibition test. The class given is in vitro ADME. The following applies: CYP2D6, fluorescent substrate 1.5 μmol/L, 37° C., 20 minutes. Put shortly:
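CYP2D6 (2.5×10^-8 M) incubated 20 min at 37 °C with 1.5 μmol/L AMMC substrate and compound (3.1×10^-7 to 2×10^-5 M) in pH 7.4 phosphate buffer with NADPH-regenerating system. Stopped with Tris/acetonitrile, fluorescence read at ex 390/em 460 nm, and IC50 taken at 50% inhibition.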

Chain of Cytochrome P450(2D6) (P10635 whole entry): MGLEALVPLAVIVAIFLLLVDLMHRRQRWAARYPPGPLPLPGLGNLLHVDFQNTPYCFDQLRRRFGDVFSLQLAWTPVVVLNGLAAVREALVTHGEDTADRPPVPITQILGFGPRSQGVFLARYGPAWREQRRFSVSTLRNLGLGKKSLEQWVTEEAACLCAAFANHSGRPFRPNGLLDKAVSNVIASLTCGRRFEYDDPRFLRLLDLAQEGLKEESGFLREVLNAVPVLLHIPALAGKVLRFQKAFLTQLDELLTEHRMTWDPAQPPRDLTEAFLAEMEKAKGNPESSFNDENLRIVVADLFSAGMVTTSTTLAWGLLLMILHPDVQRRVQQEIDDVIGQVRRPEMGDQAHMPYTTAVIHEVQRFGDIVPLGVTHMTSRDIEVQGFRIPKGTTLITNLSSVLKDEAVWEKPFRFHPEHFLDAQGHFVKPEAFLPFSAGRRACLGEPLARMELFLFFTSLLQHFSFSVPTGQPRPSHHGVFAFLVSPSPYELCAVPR

`O=C(O)/C=C1/C(=O)N(CC2CCCC2)c2c(F)cccc21` [Example 28, (2E)-[1-(cyclopentylmethyl)-7-fluoro-2-oxo-1,2-dihydro-3H-indol-3-ylidene]acetic acid]: the figures for the median effective dose (ED50) (in the test with gastric emptying of rats; in test [1]) were 0.44 mg/kg and 0.1 mg/kg, respectively. The compound also gave a 50% inhibitory concentration (IC50) against Cytochrome P450(2D6) of more than 25 µM.

As usually defined, the ED50 is the midpoint of the dose-response relation. The IC50 is the midpoint of a concentration-inhibition curve.
